Data from patent US20230096897A1, “Lymphocyte Population and Methods for Producing Same” (AVM Biotechnology, LLC, priority 2020, published 2023).
“Also recorded” adds a separate entry of the source.

How the values were obtained:
[1] = test system: female NOD mice; assay: Reversal of early onset and established diabetes in female NOD mice; settings: mouse, in vivo
Procedure: Female NOD mice are ordered at 9 weeks of age. Blood glucose levels are measured weekly starting at 10 weeks of age. Once a mouse has non-fasting blood glucose above 250 mg/dl, another measure is taken the following day.
For reversal of new-onset diabetes AVM0703 dosing is started one day after a mouse has had two consecutive days of elevated non-fasting blood glucose levels. Insulin pellets are implanted subcutaneously on the second day of elevated blood glucose levels. For reversal of established diabetes, two consecutive weeks of elevated blood glucose are measured, insulin pellets are implanted on day 8 after the first day of measured elevated blood glucose levels and AVM0703 is dosed on day 14 after the first day of measured elevated blood glucose levels.

[2] = test system: A20 B cell lymphoma; assay: A20 lymphoma study AVM_CANMOD_05, endpoint analysis subset; assay type: in vivo, mouse
[3] = test system: A20 B cell lymphoma; assay: A20 lymphoma study AVM_CANMOD_03 (dose response); assay type: in vivo, mouse
Procedure: In a second study (“AVM_CANMOD_03”), BALB/c mice (n=5 per group) were dosed with increasing concentrations of AVM0703 HED DP (7, 18, and 26 mg/kg) on Days 9, 16, 24, and 31 after tumor inoculation. Treatment started when the tumors were approximately […], as opposed to well-established tumors of 150 mm^3 as in study AVM_CANMOD_01.
Based on evidence of pseudogrowth in tumors from AVM0703-treated mice in study AVM_CANMOD_01, tumors (n=2 per group) were sent to HistoTox Labs for slicing and immunohistochemistry. Hematoxylin and eosin stains identified several regions of necrosis and the slides were scored from 0 to 5 depending on severity.

[4] = test system: CCRF-CEM human T cell lymphoma; assay: CCRF-CEM human T cell lymphoma xenograft in NCr nude mice (AVM_CANMOD_06)
Procedure: A pilot study (“AVM_CANMOD_06”) was performed to investigate anti-tumor efficacy of AVM0703 in a human T cell lymphoma model, CCRF-CEM.
Tumor volume was assessed 3 times per week and endpoint was defined as either a tumor volume greater than 1500 mm^3 or greater than a 20% loss from initial body weight measurement.

[5] = test system: female NOD mice; assay: Prevention or delay of hyperglycemia in spontaneously diabetic female NOD mice; assay type: in vivo, mouse
Procedure: Female NOD mice were ordered at 9 weeks of age.
Body weights and blood glucose levels were monitored weekly. Body condition was monitored three times per week. Oral glucose tolerance was determined in all surviving mice who reached 30 weeks of age. Remaining mice were necropsied and autoreactive lymphocytes in the pancreas and adjacent lymph nodes were determined by flow cytometry. Pancreatitis was determined by H&E staining (8 out of 15 per group). Pancreatic Beta cell surface area was measured by staining for insulin. […] Pancreas and pancreas lymph nodes were examined for autoreactive, insulin-specific CD4+ T cells by using a magnetic enrichment method together with tetramer reagents.

[6] = test system: A20 B cell lymphoma; assay: A20 lymphoma study AVM_CANMOD_01 (repeat dosing); assay type: in vivo, mouse
[7] = test system: A20 B cell lymphoma; assay: A20 B-cell lymphoma models, summary of studies; assay type: in vivo, mouse
Source text: The mouse A20 lymphoma model is a very aggressive tumor model because it employs multiple direct (expression of immunoinhibitory molecule PD-L1, IDO, and IL-10, and lack of expression of CD80 costimulatory molecule) and indirect (downregulation of APC function and induction of Treg cells) immune evasion mechanisms. In addition, in the studies described in the following, AVM0703 was not dosed until A20 tumors were very well-established, at between ˜120 to 400 mm^3 in volume.
Male BALB/c mice were inoculated subcutaneously in the flank with A20 B lymphoma cells embedded in Matrigel. Tumor volumes were monitored by caliper measurements, and when the tumors were well established at about 150 mm^3, or very well established for study “AVM_CANMOD_05” at about 400 mm^3, mice were treated with AVM0703 at HED doses of 7, 18, 22, or 25 mg/kg. Endpoint is typically defined as tumor volume of 1500 mm^3.
These mice were pooled and a contingency table analysis was performed using Fisher's exact test.

[8] = test system: A20 B cell lymphoma; assay: A20 lymphoma study AVM_CANMOD_05, lymphodepletion subset
[9] = test system: CD3high, CD45dim, CD49b+ cells; assay: Venetoclax pre-treatment before high dose DSP in female NOD mice; assay type: in vivo, mouse; settings: 48 hours after HED 30 mg/kg DSP alone
Procedure: Female NOD mice of 10 weeks of age are treated with 12.5 mg/kg up to 50 mg/kg venetoclax 6-18 hours before oral gavage of a HED 30 mg/kg DSP dose. […] CD3high, CD45dim, CD49b+ cells are reduced from—70 cells/microliter with DSP alone to—40 cells/microliter with 12.5 mg/kg venetoclax pretreatment, to—20 cells/microliter with 25 mg/kg venetoclax pretreatment, to—15 cells/microliter with 50 mg/kg venetoclax pretreatment. Venetoclax is a Bcl-2 inhibitor.

[10] = test system: human CD3high, CD45dim, CD56+ cells; assay: Human AVM-NKT cells in BRGSF humanized mice; assay type: in vivo, mouse; settings: oral HED 18-45 mg/kg; 24-48 hours later
Procedure: BRGSF humanized mice on a Balb/c background from Genoway generated by transplanting human umbilical cord blood CD34+ stem cells into irradiated mice that lack mouse B and T lymphocytes and NK cells but have a functional mouse complement system are orally dosed with HED 18-45 mg/kg DSP. 24-48 hours later human CD3high, and/or human CD45dim, and/or human CD56+ cells can be observed to be about 0.2-3% of total splenocytes by flow cytometry.

[11] = test system: AVM-NKT cells; assay: Flow cytometry of osteoarthritis patients treated with dexamethasone; assay type: in vivo, human; settings: 3-6 mg/kg; 48 hours post treatment; one of four patients
[12] = test system: human CD3high, CD45dim, CD56+ cells; assay: Human AVM-NKT cells in huNOG EXL mice; assay type: in vivo, mouse; settings: oral HED 18-45 mg/kg; 24-48 hours later
Procedure: huNOG EXL from Taconic have an average of 54% of CD45 cells positive for human CD45. Six huNOG EXL humanized immune system mice from 3 donors (n=2 per donor) are orally dosed with HED 18-45 mg/kg DSP. 24-48 hours later human CD3high, and/or human CD45dim, and/or human CD56+ cells can be observed to be about 0.2-3% of total splenocytes by flow cytometry.

[13] = test system: human CD3high, CD45dim, CD56+ cells; assay: Human AVM-NKT cells in HuCD34-NCG mice; assay type: in vivo, mouse; settings: oral HED 18-45 mg/kg; 24-48 hours later
Source text: The HuCD34-NCG mouse from Charles River is a study-ready mouse model with a human-like immune system, created by adoptive transfer of CD34+ stem cells. HuCD34-NCG mice are an ideal in vivo platform to evaluate the effectiveness of compounds modulating the human immune system. The lack, or late onset, of graft-versus-host disease (GvHD) in humanized mice make them ideal for long-term studies.
NCG mice are humanized by adoptive transfer using human umbilical cord blood-derived CD34+ stem cells, following myeloablation treatment. NCG mice from 4 donors (n=2 per donor) are orally dosed with HED 18-45 mg/kg DSP. 24-48 hours later human CD3high, and/or human CD45dim, and/or human CD56+ cells can be observed to be about 0.2-3% of total splenocytes by flow cytometry.

[14] = 18, 22, and 25 mg/kg pooled, n = 40

In the case of `C[C@@H]1C[C@H]2[C@@H]3CCC4=CC(=O)C=C[C@]4(C)[C@@]3(F)[C@@H](O)C[C@]2(C)[C@@]1(O)C(=O)CO` [AVM0703, dexamethasone], the “Body weight loss or poor body condition” value [1] is reported as “without the body weight loss or poor body condition”, the Tumor resorbed ([2]; 1 mouse treated at 18 mg/kg) is reported as 99.5% and the “Overall complete response rate” value ([2]; both subsets of AVM_CANMOD_05) is reported as 9%. The “MetaMorph Area of Live Tumor” value ([2]; individual mice, 18 mg/kg) was 27 AU × 1000, the “MetaMorph Percent Necrotic” value ([2]; individual mice, 18 mg/kg) was 69% and the Sudden deaths ([3]; 7, 18, 26 mg/kg) was “no sudden deaths”. For the same molecule, the “Spleen, thymus, colon, pancreas weights” value ([3]; 7, 18, 26 mg/kg, at euthanization) was “No significant differences”, the “Additional median survival compared with placebo” value ([3]; 18 and 26 mg/kg, not significant) was “approximately 6 days” and the Tumor necrosis ([3]; A20-3 DRC, 18&26 mg/kg) was 18&26 mg/kg 50-80% necrotic. The “Day after tumor inoculation on which one mouse was found dead” value ([4]; 18 mg/kg weekly) was 89 days, the Tumor lysis ([4]; one treated mouse) was “Significant tumor lysis; also recorded: Evidence of Tumor Lysis Syndrome” and the “Mice with significantly delayed onset” value ([5]; AVM0703 alone) was 60%. For the same molecule, the “Mice in which diabetes was prevented” value ([5]; AVM0703 alone, 5 month study) was 40%, the “First Onset of hyperglycemia (weeks of age)” value ([5]; dosing from 10 weeks of age, AVM0703 single oral HED 18 or 30 mg/kg, cyclosporine 5 then 10 mg/kg twice weekly, venetoclax 25 mg/kg) was 20 weeks of age and the “% Hyperglycemic at 22 wks of age” value ([5]; same groups) was 60%. The “Median Time to diabetes (days after 10 wks of age)” value ([5]; same groups) was 113 days, the “Body condition compared with all other groups” value ([5]; throughout the 5 month study) was “significantly better body condition” and the “Mice reaching the 20% body weight loss threshold” value ([6]; after 46 days and 8 doses, n=5) was “One mouse”. For the same molecule, the Body weight ([6]; repeat 18 mg/kg HED DP dosing, up to 7 doses) was “Does Not Reduce Body Weight”, the “HistoTox Labs Necrosis H&E (0-5), Average” value ([7]; 18 mg/kg, n = 15) was 2.7 n = 15 and the “MetaMorph Area of Live Tumor, Average” value ([7]; 18 mg/kg, n = 18) was 66^ n = 18 AU × 1000. The “MetaMorph Percent Necrotic, Average” value ([7]; 18 mg/kg, n = 18) was 59 n = 18%, the “MetaMorph Area of Live Tumor, Average” value ([7]; 22 mg/kg, n = 11) was 87 n = 11 AU × 1000 and the “MetaMorph Percent Necrotic, Average” value ([7]; 22 mg/kg, n = 11) was 53 n = 11%. The “MetaMorph Area of Live Tumor, Average” value ([7]; 25 mg/kg, n = 11) was 77 n = 11 AU × 1000, the “MetaMorph Percent Necrotic, Average” value ([7]; 25 mg/kg, n = 11) was 63 n = 11% and the “MetaMorph Area of Live Tumor, Average” value [7, 14] was 75 n = 40 AU × 1000. The “MetaMorph Percent Necrotic, Average” value [7, 14] was 59 n = 40%, the Glucose levels ([8]; 18 mg/kg HED, did not reach hypoglycemic levels) was “significantly reduced” and the “Tumor weight, tumor example” value ([8]; 25 mg/kg, placebo example 0.54 g) was 0.086 g. The “Tumor volume, tumor example” value ([8]; 25 mg/kg, placebo example 956 mm^3) was 203.25 mm^3 and the Glucose levels ([8]; tumor model) was “not elevated”.

In the case of dexamethasone sodium phosphate [DSP], the “CD3high, CD45dim, CD49b+ cells mobilized into the blood” value [9] is reported as 70 cells/microliter, the “human CD3high, and/or CD45dim, and/or CD56+ cells as share of total splenocytes” value (shortened to “human CD3high, and/or CD45dim”) [10] is reported as 0.2-3% and the “Cells corresponding to AVM-NKT cells (CD45 dim, CD56 very bright) in blood” value [11] is reported as “identified”. The “human CD3high, and/or CD45dim” value [12] was 0.2-3% and the “human CD3high, and/or CD45dim” value [13] was 0.2-3%.
